This is an account of results in patent US20240239806A1, “COMPOUNDS, COMPOSITIONS AND METHODS OF TREATING DISORDERS” (Chengdu Anticancer Bioscience, Ltd., priority 2021, published 2024).

One assay deals with human lung cancer cell line NCI-H23. Nature of the assay: Soft agar colony formation assay.
Details: not given
The class given is cell-based. The source says:
(§1) Measuring the ability of cells to grow in soft agar has been popularly believed as the gold standard assay for cellular transformation in vitro. In the Soft Agar Assay, cells grow from single cells to cell colonies in a semi-solid agar solution that keeps them away from the solid surface and allows growth in an anchorage-independent way.
The anchorage-independent growth of cells is one of the hallmarks of cancer cells. Normal epithelial cells are supported by basement membranes that provide survival and proliferative signals while undergo a type of apoptosis called anoikis when lose their attachment to the extracellular matrix. Cancer cells, in contrast, evade detachment-induced apoptosis, leading to uncontrolled proliferation and metastasis. The Soft Agar Colony Formation Assay allows testing of the therapeutic efficacy of compounds against anchorage-independent 3D growth of cancer cells in vin. The assay was performed in 6-well plates with two layers of agar. For the first, 0.75% agar in DMEM medium was melted in a microwave oven and poured to form a bottom layer. Once solidified, 10-100K cells in 1 ml of DMEM containing 0.35% agar was added to form the top layer, which was later covered with 0.5 ml of DMEM. Cell culture medium was changed once every two days until colonies were ready to photograph. […]
For the molecule `COC(=O)c1cc(Oc2ncnc3cc[nH]c23)cc(C(=O)OC)c1` [Compound 36, dimethyl 5-((5H-pyrrolo[3,2-d]pyrimidin-4-yl)oxy)isophthalate], the “growth in soft agar” value is “completely blocked the growth”.

With `COC(=O)c1cc(Oc2ncnc3ccsc23)cc(C(=O)OC)c1` [Compound 39, dimethyl 5-(thieno[3,2-d]pyrimidin-4-yloxy)isophthalate], the “growth in soft agar” value was “completely blocked the growth”.

The test system of another assay is cervical cancer cell line Hela. Nature of the assay: Soft agar colony formation assay.
Details: not given
The class given is cell-based, human.
Excerpt: as §1
(§2) The anchorage-independent growth of cells is one of the hallmarks of cancer cells. Normal epithelial cells are supported by basement membranes that provide survival and proliferative signals while undergo a type of apoptosis called anoikis when lose their attachment to the extracellular matrix. Cancer cells, in contrast, evade detachment-induced apoptosis, leading to uncontrolled proliferation and metastasis. The Soft Agar Colony Formation Assay allows testing of the therapeutic efficacy of compounds against anchorage-independent 3D growth of cancer cells in vin. The assay was performed in 6-well plates with two layers of agar. For the first, 0.75% agar in DMEM medium was melted in a microwave oven and poured to form a bottom layer. Once solidified, 10-100K cells in 1 ml of DMEM containing 0.35% agar was added to form the top layer, which was later covered with 0.5 ml of DMEM. Cell culture medium was changed once every two days until colonies were ready to photograph. We test the antitumor activity of select compounds in soft agar colony formation assays. […] The suppression of growth of these three cancer cell lines in 3D culture is consistent with the potent impact of these compounds on cellular proliferation in 2D culture.
Regarding `COC(=O)c1cc(Oc2ncnc3cc[nH]c23)cc(C(=O)OC)c1` [Compound 36, dimethyl 5-((5H-pyrrolo[3,2-d]pyrimidin-4-yl)oxy)isophthalate], the “anchorage-independent growth in soft agar” value is “effectively suppressed the anchorage-independent growth”.

Take `COc1cc(OC)cc(Oc2ccnc3ccccc23)c1` [Compound 7, 4-(3,5-dimethoxyphenoxy)quinoline]: the “anchorage-independent growth in soft agar” value is “effectively suppressed the anchorage-independent growth”.

With `COC(=O)c1cc(Oc2ncnc3ccsc23)cc(C(=O)OC)c1` [Compound 39, dimethyl 5-(thieno[3,2-d]pyrimidin-4-yloxy)isophthalate], the “anchorage-independent growth in soft agar” value is “effectively suppressed the anchorage-independent growth”.

For another assay, the system named is colon cancer cell line HCT116. Nature of the assay: Soft agar colony formation assay. In kind it is cell-based, human.
Details: not given
Excerpt: as §1, §2
`COc1cc(OC)cc(Oc2ccnc3ccccc23)c1` [Compound 7, 4-(3,5-dimethoxyphenoxy)quinoline]: the “growth in soft agar” value was “suppressed the growth”.

For the next assay, the system named is Calu-6. The experiment in a line: MECP in cancer cell line. In kind it is cell-based, human.
Details: not given
On the procedure: (§3) Six lung cancer cell lines (NCI-H23, NCI-H460, NCI-H596, NCI-H2170, Calu-6 and A549), two colon cancer cell lines (HCT116 and SW460), one breast cancer cell line MDA-MB-231, one gastric cancer cell line NCI-N87, one prostate cancer cell line DU145, one cervical cancer cell line Hela, and one glioblastoma cell line T98G were obtained from ATCC. The T2 HCC cell line was derived from a mouse liver cancer model initiated by a transgene of MYC. All cell lines were cultured in DMEM (Gibco, Cleveland, TN, USA) supplemented with 5% fetal bovine serum (Gibco), penicillin (100 U/mL)—streptomycin (100 μg/mL) (Gibco, Cat. No. 15140-122), 2 mM L-glutamine (Gibco, 200 mM solution, Cat. No. 25030081), and 1 mM sodium pyruvate (Gibco, 100 mM solution, Cat. No. 11360070) at 37° C. in a humidified incubator that was maintained at 5% CO2.
(§4) We have previously developed a mechanism-informed phenotypic screening assay to identify novel antimitotic agents. Equipped with a prior understanding of the versatile functions of the chromosomal passenger protein (CPP) complex in orchestrating karyokinesis and cytokinesis, the screening assay is to score for phenotypes typically seen when the CPP complex is disabled. Specifically, the parameters for a positive hit are a temporary elevation of mitotic index (MI) at 24 hours of drug treatment and an accumulation of polyploid cells at 48 hours of drug treatment, indicative of mitotic arrest and cytokinetic failure respectively. These parameters exclude compounds that elicit only a prolonged arrest of cells in mitosis, a phenotype typically provoked by spindle toxins. The screening procedure is briefly summarized here. RPEMYC^H2B-GFP cells engineered to express a Histone 2B-EGFP fusion protein were passaged as batches of 96-well plates, 18-24 hours before exposure to the chemical compounds of the present disclosure at concentrations from 1 nM to 30 μM. At 24, 48 or 72 hours after initiation of treatment, cells were analyzed for either an arrest in mitosis or a change in DNA content by GE IN-Cell Analyzer 2000. As set forth in Table 2 below, a value of greater than or equal to 1 nM and less than or equal to 1.0 μM is marked “A”; a value greater than 1.00 μM and less than or equal to 10.0 μM is marked “B”; a value greater than 10.0 μM and less than or equal to 30.0 μM is marked “C”; and a value greater than 30.0 μM is marked “D.”
`COC(=O)c1cc(Oc2ncnc3cc[nH]c23)cc(C(=O)OC)c1` [Compound 36, dimethyl 5-((5H-pyrrolo[3,2-d]pyrimidin-4-yl)oxy)isophthalate]: the MECP result is “A (a value of greater than or equal to 1 nM and less than or equal to 1.0 μM)”.

For `COC(=O)c1cc(OC)cc(Oc2ncnc3ccsc23)c1` [Compound 37, methyl 3-methoxy-5-(thieno[3,2-d]pyrimidin-4-yloxy)benzoate], the MECP entry is “A (a value of greater than or equal to 1 nM and less than or equal to 1.0 μM)”.

Take `COC(=O)c1cc(OC)cc(Oc2ncnc3cc[nH]c23)c1` [Compound 34, methyl 3-((5H-pyrrolo[3,2-d]pyrimidin-4-yl)oxy)-5-methoxybenzoate]: the MECP result was “A (a value of greater than or equal to 1 nM and less than or equal to 1.0 μM)”.

`COC(=O)c1cc(Oc2ncnc3ccsc23)cc(C(=O)OC)c1` [Compound 39, dimethyl 5-(thieno[3,2-d]pyrimidin-4-yloxy)isophthalate]: the MECP entry was “A (a value of greater than or equal to 1 nM and less than or equal to 1.0 μM)”.

Turning to `COC(=O)c1cc(OC)cc(Oc2ncnc3cc(OC)c(OC)cc23)c1` [Compound 29], the MECP result was “A (a value of greater than or equal to 1 nM and less than or equal to 1.0 μM)”.

A further assay deals with DU145. Nature of the assay: MECP in cancer cell line. In kind it is cell-based, human.
Details: not given
The method, then: as §3, §4
As for `COC(=O)c1cc(Oc2ncnc3cc[nH]c23)cc(C(=O)OC)c1` [Compound 36, dimethyl 5-((5H-pyrrolo[3,2-d]pyrimidin-4-yl)oxy)isophthalate], the MECP entry is “A (a value of greater than or equal to 1 nM and less than or equal to 1.0 μM)”.

As to `COC(=O)c1cc(OC)cc(Oc2ncnc3ccsc23)c1` [Compound 37, methyl 3-methoxy-5-(thieno[3,2-d]pyrimidin-4-yloxy)benzoate], the MECP result is “A (a value of greater than or equal to 1 nM and less than or equal to 1.0 μM)”.

Consider `COC(=O)c1cc(OC)cc(Oc2ncnc3cc[nH]c23)c1` [Compound 34, methyl 3-((5H-pyrrolo[3,2-d]pyrimidin-4-yl)oxy)-5-methoxybenzoate], for which the MECP entry is “A (a value of greater than or equal to 1 nM and less than or equal to 1.0 μM)”.

Regarding `COC(=O)c1cc(Oc2ncnc3ccsc23)cc(C(=O)OC)c1` [Compound 39, dimethyl 5-(thieno[3,2-d]pyrimidin-4-yloxy)isophthalate], the MECP result is “A (a value of greater than or equal to 1 nM and less than or equal to 1.0 μM)”.

Consider `COC(=O)c1cc(OC)cc(Oc2ncnc3cc(OC)c(OC)cc23)c1` [Compound 29], for which the MECP entry was “B (a value greater than 1.00 M and less than or equal to 10.0 μM)”.

The next assay deals with NCI-H2170. Nature of the assay: MECP in cancer cell line.
Details: not given
In kind it is cell-based, human. On the procedure: as §3, §4
For `COC(=O)c1cc(Oc2ncnc3cc[nH]c23)cc(C(=O)OC)c1` [Compound 36, dimethyl 5-((5H-pyrrolo[3,2-d]pyrimidin-4-yl)oxy)isophthalate], the MECP entry was “A (a value of greater than or equal to 1 nM and less than or equal to 1.0 μM)”.

As to `COC(=O)c1cc(OC)cc(Oc2ncnc3ccsc23)c1` [Compound 37, methyl 3-methoxy-5-(thieno[3,2-d]pyrimidin-4-yloxy)benzoate], the MECP result was “A (a value of greater than or equal to 1 nM and less than or equal to 1.0 μM)”.

For `COC(=O)c1cc(OC)cc(Oc2ncnc3cc[nH]c23)c1` [Compound 34, methyl 3-((5H-pyrrolo[3,2-d]pyrimidin-4-yl)oxy)-5-methoxybenzoate], the MECP entry was “A (a value of greater than or equal to 1 nM and less than or equal to 1.0 μM)”.

For `COC(=O)c1cc(Oc2ncnc3ccsc23)cc(C(=O)OC)c1` [Compound 39, dimethyl 5-(thieno[3,2-d]pyrimidin-4-yloxy)isophthalate], the MECP entry was “A (a value of greater than or equal to 1 nM and less than or equal to 1.0 μM)”.

`COC(=O)c1cc(OC)cc(Oc2ncnc3cc(OC)c(OC)cc23)c1` [Compound 29]: the MECP result was “A (a value of greater than or equal to 1 nM and less than or equal to 1.0 μM)”.

A further assay deals with A549. Nature of the assay: MECP in cancer cell line. The class given is cell-based. The settings on record: Homo sapiens. Summed up: (§5)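 Cells grown in DMEM with 5% FBS at 37° C, 5% CO2, then treated at 1 nM to 30 μM. Imaging at 24, 48 or 72 h scored mitotic arrest or DNA-content change; hits show transient mitotic-index rise at 24 h and polyploid accumulation at 48 h; values binned A (≤1.0 μM) to D (>30.0 μM).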
The molecule `COC(=O)c1cc(Oc2ncnc3cc[nH]c23)cc(C(=O)OC)c1` [Compound 36, dimethyl 5-((5H-pyrrolo[3,2-d]pyrimidin-4-yl)oxy)isophthalate] displayed a minimal effective concentration of 1 to 10 µM.

For the molecule `COC(=O)c1cc(OC)cc(Oc2ncnc3ccsc23)c1` [Compound 37, methyl 3-methoxy-5-(thieno[3,2-d]pyrimidin-4-yloxy)benzoate], the minimal effective concentration is 1 to 10 µM.

For the molecule `COC(=O)c1cc(OC)cc(Oc2ncnc3cc[nH]c23)c1` [Compound 34, methyl 3-((5H-pyrrolo[3,2-d]pyrimidin-4-yl)oxy)-5-methoxybenzoate], the minimal effective concentration lay in the range of 1 to 10 µM.

In turn, `COC(=O)c1cc(Oc2ncnc3ccsc23)cc(C(=O)OC)c1` [Compound 39, dimethyl 5-(thieno[3,2-d]pyrimidin-4-yloxy)isophthalate] returned a minimal effective concentration of 1 to 10 µM.

Take `COC(=O)c1cc(OC)cc(Oc2ncnc3cc(OC)c(OC)cc23)c1` [Compound 29]: the minimal effective concentration was 1 to 10 µM.

A further assay deals with SW480. Nature of the assay: MECP in cancer cell line. The settings on record: Homo sapiens. In kind it is cell-based. An outline of the steps:
as §5
Molecule `COC(=O)c1cc(OC)cc(Oc2ncnc3ccsc23)c1` [Compound 37, methyl 3-methoxy-5-(thieno[3,2-d]pyrimidin-4-yloxy)benzoate] yielded a minimal effective concentration of 0.001 to 1 µM.

`COC(=O)c1cc(OC)cc(Oc2ncnc3cc[nH]c23)c1` [Compound 34, methyl 3-((5H-pyrrolo[3,2-d]pyrimidin-4-yl)oxy)-5-methoxybenzoate] had a minimal effective concentration of 0.001 to 1 µM.

As to `COC(=O)c1cc(OC)cc(Oc2ncnc3cc(OC)c(OC)cc23)c1` [Compound 29], the minimal effective concentration lay in the range of 1 to 10 µM.

A further assay deals with Human Cancer Cells. The experiment in a line: Anchorage-independent growth in 3D culture (FIG. 3). The class given is cell-based. To be noted: FIG. 3 legend, cell line not named.
Excerpt: as §1, §2
Consider `COC(=O)c1cc(Oc2ncnc3cc[nH]c23)cc(C(=O)OC)c1` [Compound 36, dimethyl 5-((5H-pyrrolo[3,2-d]pyrimidin-4-yl)oxy)isophthalate], for which the “Anchorage-independent Growth of Human Cancer Cells in 3D Culture” value (shortened to “Anchorage-independent Growth … in 3D Culture”) is reported as “Suppress the Anchorage-independent Growth”.

Turning to `COc1cc(OC)cc(Oc2ccnc3ccccc23)c1` [Compound 7, 4-(3,5-dimethoxyphenoxy)quinoline], the “Anchorage-independent Growth … in 3D Culture” value is reported as “Suppress the Anchorage-independent Growth”.

`COC(=O)c1cc(Oc2ncnc3ccsc23)cc(C(=O)OC)c1` [Compound 39, dimethyl 5-(thieno[3,2-d]pyrimidin-4-yloxy)isophthalate]: the “Anchorage-independent Growth … in 3D Culture” value is on record as “Suppress the Anchorage-independent Growth”.

The term minimal effective concentration denotes the smallest amount tested that counted as effective. Low values mean greater potency, high ones weaker potency.
